Test results reported in paper PMC8446577, “Novel cold-adapted raw-starch digesting α-amylases from Eisenia fetida: Gene cloning, expression, and characterization” (Biotechnology Reports, 2021).

Molecular target: T1, rEf-Amy I (Eisenia fetida, UniProt A0A173N065)
T1 construct: gene alpha-amylase; mature enzyme without signal peptide, secreted from Pichia pastoris GS115 (pPICZalphaA, codon-optimised gene), HisTrap purified, 57 kDa by SDS-PAGE; precursor 510 residues; borders from printed domain limits E18-V510
T1 sequence (A0A173N065 18-510): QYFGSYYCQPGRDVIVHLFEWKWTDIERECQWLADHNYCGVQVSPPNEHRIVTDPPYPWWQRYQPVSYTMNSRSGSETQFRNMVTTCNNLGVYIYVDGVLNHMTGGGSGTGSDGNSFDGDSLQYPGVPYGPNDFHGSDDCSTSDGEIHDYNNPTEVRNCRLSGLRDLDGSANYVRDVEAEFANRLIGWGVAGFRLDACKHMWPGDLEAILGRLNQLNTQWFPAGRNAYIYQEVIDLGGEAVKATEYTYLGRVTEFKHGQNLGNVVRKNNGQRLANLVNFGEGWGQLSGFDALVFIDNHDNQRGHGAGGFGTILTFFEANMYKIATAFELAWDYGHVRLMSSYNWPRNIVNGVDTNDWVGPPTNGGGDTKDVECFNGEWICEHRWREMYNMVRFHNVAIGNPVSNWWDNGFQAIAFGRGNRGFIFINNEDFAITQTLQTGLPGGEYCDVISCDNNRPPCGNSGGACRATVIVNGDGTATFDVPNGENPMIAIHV
Assay: HPLC (RI detection) of hydrolysis products
Format: biochemical
Details: 5 mM substrate, 50 mM sodium acetate pH 5.5, 37 °C

OC[C@H]1O[C@H](O[C@H]2[C@H](O)[C@@H](O)[C@@H](O[C@H]3[C@H](O)[C@@H](O)[C@@H](O[C@H]4[C@H](O)[C@@H](O)[C@@H](O[C@H]5[C@H](O)[C@@H](O)C(O)O[C@@H]5CO)O[C@@H]4CO)O[C@@H]3CO)O[C@@H]2CO)[C@H](O)[C@@H](O)[C@@H]1O (some centres unmarked) [maltopentaose]
HPLC (RI detection) of hydrolysis products: In the case of Ef-Amy I, the major hydrolysis products from Mal5 were Mal and Mal3

OC[C@H]1O[C@H](O[C@H]2[C@H](O)[C@@H](O)[C@@H](O[C@H]3[C@H](O)[C@@H](O)[C@@H](O[C@H]4[C@H](O)[C@@H](O)C(O)O[C@@H]4CO)O[C@@H]3CO)O[C@@H]2CO)[C@H](O)[C@@H](O)[C@@H]1O (some centres unmarked) [maltotetraose]
HPLC (RI detection) of hydrolysis products: from Mal4 was Mal (Fig. 5B)
